From PubChem BioAssay AID651650 (Sanford-Burnham Center for Chemical Genomics, 2012)
Active and inactive are the calls of the source.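 How the source made its calls: active means mean IC50 below 20 µM in each of the two panels, so potent in both; inactive means the rest.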

Biological target: Neuropilin-1 (Homo sapiens) (UniProt O14786)
Assay: blockers of CendR peptide binding to NRP-1 – biochemical, FP and AlphaScreen panel, dose response (AID 651650)
Conditions: NRP-1 b1b2 / RPARPAR peptide binding, FP or AlphaScreen
[1] = AlphaScreen, run 1, individual panel run IC50
[2] = FP, run 1, individual panel run IC50
[3] = FP, run 2, individual panel run IC50

Sequence of Neuropilin-1 (Homo sapiens) (O14786 whole entry, looked up): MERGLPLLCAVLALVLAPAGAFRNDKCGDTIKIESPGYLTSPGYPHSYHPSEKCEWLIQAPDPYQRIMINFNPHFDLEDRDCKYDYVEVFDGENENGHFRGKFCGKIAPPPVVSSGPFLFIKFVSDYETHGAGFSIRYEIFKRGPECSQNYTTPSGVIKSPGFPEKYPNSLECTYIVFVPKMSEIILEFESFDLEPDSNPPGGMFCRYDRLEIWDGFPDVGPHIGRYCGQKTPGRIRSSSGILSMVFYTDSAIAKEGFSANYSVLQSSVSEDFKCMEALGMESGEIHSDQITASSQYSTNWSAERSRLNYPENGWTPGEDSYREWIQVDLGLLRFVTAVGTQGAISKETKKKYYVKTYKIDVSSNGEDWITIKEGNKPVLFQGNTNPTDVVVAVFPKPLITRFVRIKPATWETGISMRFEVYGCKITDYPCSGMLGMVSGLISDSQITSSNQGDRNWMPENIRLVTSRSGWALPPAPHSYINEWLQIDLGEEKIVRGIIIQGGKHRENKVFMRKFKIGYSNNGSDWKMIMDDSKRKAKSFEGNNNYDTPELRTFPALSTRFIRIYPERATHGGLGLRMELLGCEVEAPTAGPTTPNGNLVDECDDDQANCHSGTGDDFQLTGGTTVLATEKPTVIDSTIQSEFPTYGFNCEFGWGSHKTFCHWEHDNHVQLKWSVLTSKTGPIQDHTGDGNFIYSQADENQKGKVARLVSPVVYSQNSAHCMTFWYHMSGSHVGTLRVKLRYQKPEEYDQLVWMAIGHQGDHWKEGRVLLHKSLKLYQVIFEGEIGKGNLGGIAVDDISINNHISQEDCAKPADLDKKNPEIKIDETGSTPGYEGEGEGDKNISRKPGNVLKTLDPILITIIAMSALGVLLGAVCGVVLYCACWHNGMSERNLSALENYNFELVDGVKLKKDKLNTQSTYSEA

SMILES	IC50 (AlphaScreen, mean of runs)	IC50 [1]	IC50 (FP, mean of runs)	IC50 [2]	IC50 [3]
Cc1ccccc1NC(=S)NC(=O)COc1ccccc1C	6.67 µM	6.67 µM	inactive	32.6 µM	35 µM
COc1cccc(-c2ccc3c(c2)N(Cc2ccccc2OC)C(=O)C(C)S3)c1 (stereo not given)	> 100 µM (inactive)	> 100 µM	> 95 µM (inactive)	> 95 µM	> 95 µM
Cc1nnc(NC(=O)c2ccccc2C(=O)O)s1	16.6 µM	16.6 µM	> 95 µM (inactive)	> 95 µM	> 95 µM
CSc1ncccc1C(=O)OCC(=O)NC1CCCCC1	> 100 µM (inactive)	> 100 µM	> 95 µM (inactive)	> 95 µM	> 95 µM
N/C(CSc1ccc(Cl)cc1)=N\S(=O)(=O)c1ccc(Cl)cc1	> 100 µM (inactive)	> 100 µM	> 95 µM (inactive)	> 95 µM	> 95 µM
Cc1cc(=O)n2nc(N3CCCC(C(=O)N4CCOCC4)C3)sc2n1 (stereo not given)	> 100 µM (inactive)	> 100 µM	> 95 µM (inactive)	> 95 µM	> 95 µM
Cc1ccc(C)c(-n2c(SCC(=O)NC(C(=O)O)C(C)C)nnc2-c2cccc(Cl)c2)c1 (stereo not given)	> 100 µM (inactive)	> 100 µM	> 95 µM (inactive)	> 95 µM	> 95 µM
COC(=O)C1N[C@@H]([C@@H](NC(=O)COc2ccccc2)C(=O)NCc2ccccc2)SC1(C)C (stereo not given in full)	> 100 µM (inactive)	> 100 µM	> 95 µM (inactive)	> 95 µM	> 95 µM
COc1ccc(-c2cc(C)no2)cc1S(=O)(=O)NCc1cccc(C)c1	> 100 µM (inactive)	> 100 µM	> 95 µM (inactive)	> 95 µM	> 95 µM
CC1CCC(NC(=O)CSc2nncn2C)CC1 (stereo not given)	> 100 µM (inactive)	> 100 µM	> 95 µM (inactive)	> 95 µM	> 95 µM
Cc1ccc(NNS(=O)(=O)c2ccc(C)cc2)cc1	> 100 µM (inactive)	> 100 µM	> 95 µM (inactive)	> 95 µM	> 95 µM
OCCC1CCCCN1CC(O)COCc1ccc(Cl)cc1 (stereo not given)	> 100 µM (inactive)	> 100 µM	> 95 µM (inactive)	> 95 µM	> 95 µM
COCCNC(=S)N(CCc1c(C)[nH]c2ccc(F)cc12)Cc1cccs1	> 100 µM (inactive)	> 100 µM	> 95 µM (inactive)	> 95 µM	> 95 µM
CCC1=C(OC(=O)N(CC)CC)N2C(=O)OC(=NCC(=O)OC)[C@]2(Cc2ccccc2)[C@H]2C1=CC[C@H]1C(=O)N(CC(=O)OC)C(=O)[C@H]12	inactive	64.8 µM	> 95 µM (inactive)	> 95 µM	> 95 µM
CCC1=C(OC(=O)N(CC)CC)N2C(=O)OC(=NCCOC)[C@]2(Cc2ccccc2)[C@H]2C1=CC[C@H]1C(=O)N(CC(=O)OC)C(=O)[C@H]12	> 100 µM (inactive)	> 100 µM	> 95 µM (inactive)	> 95 µM	> 95 µM
O=C(CSc1nc2ccccc2n1Cc1ccccc1Cl)N/N=C/c1ccccc1C(=O)O	inactive	39.2 µM	> 95 µM (inactive)	> 95 µM	> 95 µM
CCC1CCCCN1CCCNC(=O)C1CCCN(S(=O)(=O)N2CC(C)CC(C)C2)C1 (stereo not given)	6.29 µM	6.29 µM	> 95 µM (inactive)	> 95 µM	> 95 µM
Cn1c(=NC(=O)COc2ccccc2)sc2ccccc21	> 100 µM (inactive)	> 100 µM	> 95 µM (inactive)	> 95 µM	> 95 µM
COc1ccc([C@H]2/C=C\CN(C(=O)C3CC3)[C@@H](C)C(=O)N2Cc2ccc(F)cc2)cc1	> 100 µM (inactive)	> 100 µM	> 95 µM (inactive)	> 95 µM	> 95 µM
COC(=O)c1ccc(Cn2nnc3c(=O)[nH]c(C4CCCN(S(=O)(=O)c5cccc(Cl)c5)C4)nc32)cc1 (stereo not given)	> 100 µM (inactive)	> 100 µM	> 95 µM (inactive)	> 95 µM	> 95 µM
O=C(c1ccc(-c2cccc(Cl)c2)o1)N1CCN(c2ccc([N+](=O)[O-])cc2)CC1	> 100 µM (inactive)	> 100 µM	inactive	> 95 µM	39.5 µM
FC(F)(F)C1CC(c2cccs2)Nc2ncnn21 (stereo not given)	> 100 µM (inactive)	> 100 µM	> 95 µM (inactive)	> 95 µM	> 95 µM
